The results in this text go back to US11414416B1, “Compounds and uses thereof” (Foghorn Therapeutics Inc., priority 2019, dated 2022).

One assay concerns the target BRD9 bromodomain (Homo sapiens (Human), UniProt Q9H8M2). Briefly: BRD9 bromodomain TR-FRET competition binding assay. The following applies: Table 4; competition with biotinylated ligand, 3 nM Flag-BRD9, 90 minutes. Here is the method: Procedure: His-Flag-BRD9 (P133-K239; Swiss Prot Q9H8M2; SEQ ID NO:1 mgsshhhhhhenlyfq/gdykddddkgslevlfqg/[…] […]) was cloned, expressed, purified, and then treated with TEV protease. Cleaved His tag was removed by purification. The binding of a biotinylated small molecule ligand of BRD9 was assessed via the LANCE® TR-FRET platform (PerkinElmer), and the compounds were assayed for inhibitory activity against this interaction.
A mixture of biotinylated-ligand and SureLight™ Allophycocyanin-Streptavidin (APC-SA, PerkinElmer AD0201) in 50 mM HEPES (pH 7.4), 50 mM NaCl, 1 mM TCEP (pH 7), 0.01% (v/v) Tween-20, 0.01% (w/v) bovine serum albumin was added to a white 384-well PerkinElmer Proxiplate Plus plate. DMSO or 3-fold serially diluted compounds were then added to the Proxiplate followed by addition of Flag-BRD9. After a 10-minute incubation at room temperature, Eu-W1024 anti-FLAG (PerkinElmer, AD0273) was added. The final reaction mixture that contained 3.75 nM biotinylated ligand, 3 nM Flag-BRD9, 7.5 nM SureLight™ Allophycocyanin-Streptavidin, and 0.2 nM Eu-W1024 anti-FLAG was incubated at room temperature for 90 minutes.
Results: The plates were then read on a PerkinElmer Envision plate reader to determine the ratio of emission at 665 nm over 615 nm. […]
(Time-resolved FRET reads energy transfer from a long-lived donor to a nearby acceptor.)

Assay [1] has as its target Nanoluciferase-BRD9 fusion protein (Homo sapiens (Human), UniProt Q9H8M2). Description: SYO1 BRD9 NanoLuc degradation assay. Type of assay: cell-based. The settings on record: Table 5A, SYO-1 cells expressing 3×FLAG-NLuc-BRD9, 6 hours; for DC50: read-out: SYO1 BRD9-NanoLuc degradation IC50. In short, it runs like this: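 Degradation was read as loss of nanoluciferase signal (Nano-Glo) after 6 h compound exposure in a stable SYO-1 line carrying 3×FLAG-NLuc-BRD9 (8000 cells/well). Normalised between DMSO (high) and a 1 μM known BRD9 degrader (low).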

Bounds are passed on as bounds.

Sequence of BRD9 bromodomain (Q9H8M2 133-239): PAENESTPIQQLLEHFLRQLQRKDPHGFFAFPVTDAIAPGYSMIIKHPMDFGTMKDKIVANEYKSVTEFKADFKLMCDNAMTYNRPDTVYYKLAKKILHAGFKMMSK
Sequence of Nanoluciferase-BRD9 fusion protein (Q9H8M2 whole entry, the tested form may be a part): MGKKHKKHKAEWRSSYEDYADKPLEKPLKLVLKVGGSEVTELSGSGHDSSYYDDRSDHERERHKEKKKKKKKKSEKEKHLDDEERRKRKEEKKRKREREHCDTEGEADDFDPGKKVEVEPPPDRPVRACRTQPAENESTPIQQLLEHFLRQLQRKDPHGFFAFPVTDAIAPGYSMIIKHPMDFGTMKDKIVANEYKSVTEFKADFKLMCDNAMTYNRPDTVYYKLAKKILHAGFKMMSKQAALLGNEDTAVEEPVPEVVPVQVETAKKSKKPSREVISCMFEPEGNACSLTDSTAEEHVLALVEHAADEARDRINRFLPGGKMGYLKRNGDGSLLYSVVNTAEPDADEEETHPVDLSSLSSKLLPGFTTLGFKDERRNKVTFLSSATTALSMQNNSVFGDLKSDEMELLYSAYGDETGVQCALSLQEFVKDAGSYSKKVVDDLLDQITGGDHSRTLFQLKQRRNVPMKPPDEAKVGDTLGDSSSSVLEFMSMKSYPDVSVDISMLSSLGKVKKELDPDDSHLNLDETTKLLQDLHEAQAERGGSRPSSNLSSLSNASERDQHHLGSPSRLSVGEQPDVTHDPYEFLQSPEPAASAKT

On BRD9 bromodomain, `COc1cc(-c2cn(C)c(=O)c3cnccc23)cc(OC)c1CN1CC[C@H]1C(=O)NCCN(C)CCNc1cccc2c1C(=O)N(C1CCC(=O)NC1=O)C2=O` (stereo partly drawn) [Compound D25, (2S)-1-[[2,6-dimethoxy-4-(2-methyl-1-oxo-1,2-dihydro-2,7-naphthyridin-4-yl)phenyl]methyl]-N-[2-[(2-[[2-(2,6-dioxopiperidin-3-yl)-1,3-dioxo-2,3-dihydro-1H-isoindol-4-yl]amino]ethyl)(methyl)amino]ethyl]azetidine-2-carboxamide] displayed an IC50 below 0.01 µM. Moreover, in assay [1], the DC50 was in the range of 0.1 to 1 µM.

`COc1cc(-c2cn(C)c(=O)c3cnccc23)cc(OC)c1CN1CC[C@H]1C(=O)NCCN(C)CCNC(=O)COc1ccc2c(c1)C(=O)N(C1CCC(=O)NC1=O)C2=O` (stereo partly drawn) [Compound D26, N-[2-[(2-[[(2S)-1-[[2,6-dimethoxy-4-(2-methyl-1-oxo-1,2-dihydro-2,7-naphthyridin-4-yl)phenyl]methyl]azetidin-2-yl]formamido]ethyl)(methyl)amino]ethyl]-2-[[2-(2,6-dioxopiperidin-3-yl)-1,3-dioxo-2,3-dihydro-1H-isoindol-5-yl]oxy]acetamide]: the IC50 is 0.01 to 0.1 µM on BRD9 bromodomain and above 1 µM in assay [1].

On to `COc1cc(-c2cn(C)c(=O)c3cnccc23)cc(OC)c1CN1CC[C@H]1CN(C)Cc1cccc2c1C(=O)N(C1CCC(=O)NC1=O)C2=O` (stereo partly drawn) [Compound D27, 4-(((((S)-1-(2,6-dimethoxy-4-(2-methyl-1-oxo-1,2-dihydro-2,7-naphthyridin-4-yl)benzyl)azetidin-2-yl)methyl)(methyl)amino)methyl)-2-(2,6-dioxopiperidin-3-yl)isoindoline-1,3-dione], for which the concentration for half-maximal inhibition (IC50) on BRD9 bromodomain was below 0.01 µM. The DC50 in assay [1] fell in the range of 0.01 to 0.1 µM.

`COc1cc(-c2cn(C)c(=O)c3cnccc23)cc(OC)c1CN1CC(C(=O)NCCS(=O)(=O)CCNc2cccc3c2C(=O)N(C2CCC(=O)NC2=O)C3=O)C1` (centres unmarked) [Compound D30, 1-(2,6-dimethoxy-4-(2-methyl-1-oxo-1,2-dihydro-2,7-naphthyridin-4-yl)benzyl)-N-(2-((2-((2-(2,6-dioxopiperidin-3-yl)-1,3-dioxoisoindolin-4-yl)amino)ethyl)sulfonyl)ethyl)azetidine-3-carboxamide] gave an IC50 at BRD9 bromodomain below 0.01 µM. In assay [1], the DC50 lay within 0.01 to 0.1 µM.

The compound `COc1cc(-c2cn(C)c(=O)c3cnccc23)cc(OC)c1CNCCCN1CC(Oc2ccc3c(c2)C(=O)N(C2CCC(=O)NC2=O)C3=O)C1` (centres unmarked) [Compound D31, 5-((1-(3-((2,6-dimethoxy-4-(2-methyl-1-oxo-1,2-dihydro-2,7-naphthyridin-4-yl)benzyl)amino)propyl)azetidin-3-yl)oxy)-2-(2,6-dioxopiperidin-3-yl)isoindoline-1,3-dione formic acid] yielded an IC50 at BRD9 bromodomain below 0.01 µM. In assay [1], the DC50 fell in the range of 0.01 to 0.1 µM.

Take `COc1cc(-c2cn(C)c(=O)c3cnccc23)cc(OC)c1CN1CC2(C1)CN(C(=O)CCCOc1cccc3c1C(=O)N(C1CCC(=O)NC1=O)C3=O)C2` (centres unmarked) [Compound D32, 4-(4-(6-(2,6-dimethoxy-4-(2-methyl-1-oxo-1,2-dihydro-2,7-naphthyridin-4-yl)benzyl)-2,6-diazaspiro[3.3]heptan-2-yl)-4-oxobutoxy)-2-(2,6-dioxopiperidin-3-yl)isoindoline-1,3-dione]: the IC50 on BRD9 bromodomain was below 0.01 µM. Further, the DC50 in assay [1] lay in the range of 0.01 to 0.1 µM.

As for `COc1cc(-c2cn(C)c(=O)c3cnccc23)cc(OC)c1CN1CCN(C(=O)CCCOc2cccc3c2C(=O)N(C2CCC(=O)NC2=O)C3=O)CC1` (centres unmarked) [Compound D33, 4-(4-(4-(2,6-dimethoxy-4-(2-methyl-1-oxo-1,2-dihydro-2,7-naphthyridin-4-yl)benzyl)piperazin-1-yl)-4-oxobutoxy)-2-(2,6-dioxopiperidin-3-yl)isoindoline-1,3-dione], the IC50 (at BRD9 bromodomain; in assay [1]) was below 0.01 µM in each case.

Take `COc1cc(-c2cn(C)c(=O)c3cnccc23)cc(OC)c1CN1CC2(C1)CN(C(=O)CCCCOc1cccc3c1C(=O)N(C1CCC(=O)NC1=O)C3=O)C2` (centres unmarked) [Compound D34, 4-((5-(6-(2,6-dimethoxy-4-(2-methyl-1-oxo-1,2-dihydro-2,7-naphthyridin-4-yl)benzyl)-2,6-diazaspiro[3.3]heptan-2-yl)-5-oxopentyl)oxy)-2-(2,6-dioxopiperidin-3-yl)isoindoline-1,3-dione]: the half-inhibitory concentration (IC50) (on BRD9 bromodomain; in assay [1]) was below 0.01 µM in each case.

As for `COc1cc(-c2cn(C)c(=O)c3cnccc23)cc(OC)c1CN1CC2(C1)CN(C(=O)COc1cccc3c1C(=O)N(C1CCC(=O)NC1=O)C3=O)C2` (centres unmarked) [Compound D36, 4-(2-(6-(2,6-dimethoxy-4-(2-methyl-1-oxo-1,2-dihydro-2,7-naphthyridin-4-yl)benzyl)-2,6-diazaspiro[3.3]heptan-2-yl)-2-oxoethoxy)-2-(2,6-dioxopiperidin-3-yl)isoindoline-1,3-dione], the IC50 at BRD9 bromodomain is below 0.01 µM. Further, the DC50 in assay [1] lay within 0.1 to 1 µM.

Take `COc1cc(-c2cn(C)c(=O)c3cnccc23)cc(OC)c1CN1CCN(C(=O)COc2cccc3c2C(=O)N(C2CCC(=O)NC2=O)C3=O)CC1` (centres unmarked) [Compound D37, 4-(2-(4-(2,6-dimethoxy-4-(2-methyl-1-oxo-1,2-dihydro-2,7-naphthyridin-4-yl)benzyl)piperazin-1-yl)-2-oxoethoxy)-2-(2,6-dioxopiperidin-3-yl)isoindoline-1,3-dione formic acid]: the half-inhibitory concentration (IC50) (on BRD9 bromodomain; in assay [1]) was below 0.01 µM throughout.

On to `COc1cc(-c2cn(C)c(=O)c3cnccc23)cc(OC)c1CN1CC(S(=O)(=O)NCCOCCOCCNc2cccc3c2C(=O)N(C2CCC(=O)NC2=O)C3=O)C1` (centres unmarked) [Compound D38, 1-[[2,6-dimethoxy-4-(2-methyl-1-oxo-2,7-naphthyridin-4-yl)phenyl]methyl]-N-[2-[2-(2-[[2-(2,6-dioxopiperidin-3-yl)-1,3-dioxoisoindol-4-yl]amino]ethoxy)ethoxy]ethyl]azetidine-3-sulfonamide formic acid], for which the IC50 (on BRD9 bromodomain; in assay [1]) was below 0.01 µM throughout.

For the compound `COc1cc(-c2cn(C)c(=O)c3cnccc23)cc(OC)c1CN1CCC2(CC1)CN(C(=O)CCCOc1cccc3c1C(=O)N(C1CCC(=O)NC1=O)C3=O)CCO2` (centres unmarked) [Compound D39, 4-[4-(9-[[2,6-dimethoxy-4-(2-methyl-1-oxo-2,7-naphthyridin-4-yl)phenyl]methyl]-1-oxa-4,9-diazaspiro[5.5]undecan-4-yl)-4-oxobutoxy]-2-(2,6-dioxopiperidin-3-yl)isoindole-1,3-dione], the IC50 (at BRD9 bromodomain; in assay [1]) was below 0.01 µM each time.

Take `COc1cc(-c2cn(C)c(=O)c3cnccc23)cc(OC)c1CN1CCC2(CC1)CN(C(=O)CCCCOc1cccc3c1C(=O)N(C1CCC(=O)NC1=O)C3=O)CCO2` (centres unmarked) [Compound D40, 4-[[5-(9-[[2,6-dimethoxy-4-(2-methyl-1-oxo-2,7-naphthyridin-4-yl)phenyl]methyl]-1-oxa-4,9-diazaspiro[5.5]undecan-4-yl)-5-oxopentyl]oxy]-2-(2,6-dioxopiperidin-3-yl)isoindole-1,3-dione formic acid]: the IC50 (at BRD9 bromodomain; in assay [1]) was below 0.01 µM each time.

In turn, `COc1cc(-c2cn(C)c(=O)c3cnccc23)cc(OC)c1CN1CCC2(CC1)CN(C(=O)COc1cccc3c1C(=O)N(C1CCC(=O)NC1=O)C3=O)CCO2` (centres unmarked) [Compound D41, 4-[2-(9-[[2,6-dimethoxy-4-(2-methyl-1-oxo-2,7-naphthyridin-4-yl)phenyl]methyl]-1-oxa-4,9-diazaspiro[5.5]undecan-4-yl)-2-oxoethoxy]-2-(2,6-dioxopiperidin-3-yl)isoindole-1,3-dione formic acid] displayed an IC50 on BRD9 bromodomain below 0.01 µM. In assay [1], the DC50 was in the range of 0.01 to 0.1 µM.

With `COc1cc(-c2cn(C)c(=O)c3cnccc23)cc(OC)c1CN(C)CCCN1CCC(Oc2ccc3c(c2)C(=O)N(C2CCC(=O)NC2=O)C3=O)CC1` (centres unmarked) [Compound D52, 5-((1-(3-((2,6-dimethoxy-4-(2-methyl-1-oxo-1,2-dihydro-2,7-naphthyridin-4-yl)benzyl) (methyl)amino)propyl)piperidin-4-yl)oxy)-2-(2,6-dioxopiperidin-3-yl)isoindoline-1,3-dione formic acid], the IC50 (on BRD9 bromodomain; in assay [1]) was below 0.01 µM throughout.

In the case of `COc1cc(-c2cn(C)c(=O)c3cnccc23)cc(OC)c1CN1CCN(CCCOc2ccc3c(c2)C(=O)N(C2CCC(=O)NC2=O)C3=O)CC1` (centres unmarked) [Compound D53, 5-[3-(4-[[2,6-dimethoxy-4-(2-methyl-1-oxo-2,7-naphthyridin-4-yl)phenyl]methyl]piperazin-1-yl)propoxy]-2-(2,6-dioxopiperidin-3-yl)isoindole-1,3-dione], the IC50 (on BRD9 bromodomain; in assay [1]) was below 0.01 µM in each case.

Broadly, the IC50 is the concentration that gives 50% inhibition. Higher therefore signals weaker potency in that assay.
